Read-outs that look alike come from different tables or passages of the source. One block for each compound: values may come before it.
Legend:
[1] = test system: A549 (EGFR wt); experiment: Proliferation (CellTiter-Glo), A549; assay type: cell-based, human; details: Homo sapiens; A549, EGFR wt, 72 hours; read-out: GI50
Description: (§2) The human cancer cell lines A549, A431, H3255, H1975, PC-9, HCC827, H23, H460, A549, H358 and H2122 cells were purchased from the American Type Culture Collection (ATCC) (Manassas, VA, USA). […] A549 and A431 were cultured in DMEM media (Corning, USA) with 10% FBS and supplemented with 2% L-glutamine and 1% pen/strep. H3255 was cultured in BEGM media (LONZA, USA) with 10% FBS and supplemented with 2% L-glutamine and 1% pen/strep.
(§3) Cells were grown in 96-well culture plates (2500–3000/well). For adherent cell lines, compounds of various concentrations were added into the plates after cells were cultured for 12 hours. Cell proliferation was determined after treatment with compounds for 72 hours. Cell viability was measured using the CellTiter–Glo assay (Promega, USA), according to the manufacturer's instructions, and luminescence was measured in a multi-label reader (Envision, PerkinElmer, USA). Data were normalized to control groups (DMSO) and represented by the mean of three independent measurements with standard error <20%. GI50 values were calculated using Prism 5.0 (GraphPad Software, San Diego, CA).

[2] = test system: H358 (EGFR wt); experiment: Proliferation (CellTiter-Glo), H358; assay type: cell-based, human; details: Homo sapiens, NCI-H358; H358, EGFR wt, 72 hours; read-out: GI50
Description: as §2, §3

[3] = test system: PC-9 EGFR del 19; experiment: Colony formation assay, PC-9; assay type: cell-based, human; details: PC-9, 10 days, read-out: EC50 colony formation
Description: (§4) The clonogenic activity of the cells was determined by colony forming assays. Every six conditions of drugs were analyzed (10 μM, 1 μM, 0.1 μM, 0.01 μM, 0.001 μM, DMSO). The cells (H1975, PC-9, HCC827, H3255) were seeded at 600 cells/well in 2 ml medium in 6-well plates. Cells were maintained in a humidified 5% CO2 incubator at 37°C for 10 days without changing medium. […] The total number of colonies exceeding 50 cells per colony was counted and data were given as percentage with respect to the controls.

[4] = test system: PC-9 cells; experiment: Cell cycle analysis (FACS), PC-9; assay type: cell-based, human; details: PC-9, 24h
Description: (§5) The cells were fixed in 70% cold ethanol and incubated at −20°C overnight then stained with PI/RNase staining buffer (BD Pharmingen). Flow cytometry was performed using a FACS Calibur (BD), and results were analyzed by ModFit software.

[5] = test system: A431 (EGFR wt); experiment: Proliferation (CellTiter-Glo), A431; assay type: cell-based, human; details: Homo sapiens, A-431; A431, EGFR wt, 72 hours; read-out: GI50
Description: as §2, §3

[6] = test system: H2122 (EGFR wt); experiment: Proliferation (CellTiter-Glo), H2122; assay type: cell-based, human; details: Homo sapiens, NCI-H2122; H2122, EGFR wt, 72 hours; read-out: GI50
Description: as §2, §3

[7] = test system: PC-9 (EGFR Del19); experiment: Proliferation (CellTiter-Glo), PC-9; assay type: cell-based, human; details: Homo sapiens; PC-9, EGFR Del19, 72 hours; read-out: GI50
Description: as §2, §3

[8] = test system: H3255 cells; experiment: Cell cycle analysis (FACS), H3255; assay type: cell-based, human; details: H3255, 24h
Description: as §5

[9] = test system: H1975 (EGFR L858R/T790M); experiment: Proliferation (CellTiter-Glo), H1975; assay type: cell-based, human; details: Homo sapiens, NCI-H1975; H1975, EGFR L858R/T790M, 72 hours; read-out: GI50
Description: as §2, §3

[10] = test system: HCC827 cells; experiment: Cell cycle analysis (FACS), HCC827; assay type: cell-based, human; details: HCC827, 24 h
Description: as §5

[11] = test system: HCC827 EGFR Del 19; experiment: Colony formation assay, HCC827; assay type: cell-based, human; details: HCC827, 10 days, read-out: EC50 colony formation
Description: as §4

[12] = test system: H3255 (EGFR L858R); experiment: Proliferation (CellTiter-Glo), H3255; assay type: cell-based, human; details: Homo sapiens, NCI-H3255; H3255, EGFR L858R, 72 hours; read-out: GI50
Description: as §2, §3

[13] = test system: H23 (EGFR wt); experiment: Proliferation (CellTiter-Glo), H23; assay type: cell-based, human; details: Homo sapiens; H23, EGFR wt, 72 hours; read-out: GI50
Description: as §2, §3

[14] = test system: H460 cells; experiment: Cell cycle analysis (FACS), H460; assay type: cell-based, human; details: H460, 48h
Description: as §5

[15] = test system: H460 (EGFR wt); experiment: Proliferation (CellTiter-Glo), H460; assay type: cell-based, human; details: Homo sapiens, NCI-H460; H460, EGFR wt, 72 hours; read-out: GI50
Description: as §2, §3

[16] = test system: H3255 EGFR L858R; experiment: Colony formation assay, H3255; assay type: cell-based, human; details: Homo sapiens, NCI-H3255, 240 h, H3255, 10 days; read-out: EC50 colony formation
Description: as §4

[17] = test system: HCC827 (EGFR Del19); experiment: Proliferation (CellTiter-Glo), HCC827; assay type: cell-based, human; details: Homo sapiens; HCC827, EGFR Del19, 72 hours; read-out: GI50
Description: as §2, §3

[18] = test system: H1975 EGFR (L858R/T790M); experiment: Colony formation assay, H1975; assay type: cell-based, human; details: Homo sapiens, NCI-H1975, 240 h, H1975, 10 days; read-out: EC50 colony formation
Description: as §4

[19] = test system: H1975 cells; details: DMSO = 100
Description: as §3

[20] = test system: H1975 cells; experiment: cells; details: Homo sapiens, NCI-H1975, read-out: Relative activity (%)
Description: as §3

[21] = test system: PI3K kinase; experiment: PI3K kinases ADP-Glo assay; assay type: biochemical; details: Fig. S8
[22] = test system: Akt Thr308 and Ser473 phosphorylation in H1975; experiment: Signaling pathway immunoblotting, H1975; assay type: cell-based, human; details: H1975, 4 hours
Description: Antibodies were used at 1:1000.
(§6) Cells were then washed with PBS and lysed in cell lysis buffer.

[23] = test system: PC-9 xenograft; experiment: PC-9 xenograft mouse model; assay type: in vivo, Nude (Nu/Nu) mice; details: PC-9 xenograft, 25, 50, 100 mg/Kg BID oral gavage, 22 days
Description: (§1) Tumor diameter was measured 3 times weekly. Tumor volumes (V) were calculated by the equation (V = length × width × width/2). ALL experiments and procedures followed the guidelines of the Institutional Animal Care and Use Committees of National Institue of Biological Sciences, Beijing.

[24] = test system: H1975 xenograft; experiment: H1975 xenograft mouse model; assay type: in vivo, Nude (Nu/Nu) mice
Description: as §1

[25] = test system: H1975 cells; experiment: Cell cycle analysis (FACS), H1975; assay type: cell-based, human
Description: as §5

[26] = test system: EGFR Y1068 in PC-9, HCC827, and H3255; experiment: EGFR Y1068 auto-phosphorylation in EGFR primary mutant cell lines; assay type: cell-based, human; details: range over PC-9, HCC827, and H3255
Description: Antibodies were used at 1:1000.
as §6

- GI50 [1]: 830 nM
- GI50 [2]: 4.8 µM
- EC50 ([3]; Homo sapiens, 240 h): 56.2 nM
- EC50 [3]: 56 nM
- GI50 [5]: 1200 nM
- GI50 [6]: 1400 nM
- GI50 [7]: 130 nM
- GI50 [9]: 440 nM
- EC50 [11]: 11 nM
- EC50 ([11]; Homo sapiens, HCC827, 240 h): 11.5 nM
- GI50 [12]: 250 nM
- GI50 [15]: 2500 nM
- EC50 [16]: 211 nM
- GI50 [17]: 97 nM
- EC50 [18]: 606 nM
Compound: C=CC(=O)Nc1cccc(Nc2nc(Nc3ccc(N4CCN(C(C)=O)CC4)cc3OC)ncc2C(F)(F)F)c1 [CO-1686]
- %G0-G1 ([4]; 0.3 μM): 85.49%
- %G2-M ([4]; 0.3 μM): 8.97%
- %G0-G1 ([8]; 0.3 μM): 81.24%
- %G2-M ([8]; 0.3 μM): 9.84%
- %G0-G1 ([10]; 0.3 μM): 83.96%
- %G2-M ([10]; 0.3 μM): 3.62%
- GI50 [13]: 1400 nM
- %G0-G1 ([14]; 0.3 μM): 51.62%
- %G2-M ([14]; 0.3 μM): 8.78%

Compound: C=CC(=O)N1CCC[C@@H](n2nc(-c3ccc(Oc4ccccc4)cc3)c3c(N)ncnc32)C1 [ibrutinib, Ibrutinib]
- H1975 cell lines growth ([19]; single agent 0.37 μM): 43.77
- H1975 cell lines growth ([19]; single agent 1.1 μM): 34.56
- GI50 [1]: > 10000 nM
- activity at 1.1 µM [20]: 52.3%
- GI50 [2]: > 10 µM
- %G0-G1 ([4]; 0.3 μM): 81.91%
- %G2-M ([4]; 0.3 μM): 10.77%
- %G0-G1 ([4]; 3 μM): 84.9%
- %G2-M ([4]; 3 μM): 8.54%
- enzymatic activity against PI3K kinase [21]: did not have apparent enzymatic activity
- phosphorylation of Akt Thr308 and Ser473 [22]: significantly affected the phosphorylation of Akt Thr308 and Ser473
- GI50 [5]: > 10000 nM
- GI50 [6]: > 10000 nM
- anti-tumor activity (tumor progression) [23]: tumor progression slow down efficacy
- GI50 [7]: 50 nM
- anti-tumor activity (tumor progression) ([24]; 50 mg/kg BID oral gavage, 23-day): slowed down tumor progression
- anti-tumor activity, higher dosage versus 50 mg/kg BID ([24]; 100 mg/Kg BID): did not improve efficacy
- %G0-G1 ([8]; 0.3 μM): 82.82%
- %G2-M ([8]; 0.3 μM): 9.73%
- %G0-G1 ([8]; 3 μM): 89.05%
- %G2-M ([8]; 3 μM): 5.24%
- GI50 [9]: 1200 nM
- %G0-G1 ([10]; 0.3 μM): 78.26%
- %G2-M ([10]; 0.3 μM): 6.86%
- %G0-G1 ([10]; 3 μM): 80.37%
- %G2-M ([10]; 3 μM): 5.91%
- GI50 [12]: 110 nM
- %G0-G1 ([25]; H1975, 12h, 0.3 μM): 69.44%
- %G2-M ([25]; H1975, 12h, 0.3 μM): 10.92%
- %G0-G1 ([25]; H1975, 12h, 3 μM): 74.28%
- %G0-G1 ([25]; H1975, 24h, 0.3 μM): 81.96%
- %G2-M ([25]; H1975, 24h, 0.3 μM): 6.76%
- %G0-G1 ([25]; H1975, 24h, 3 μM): 86.20%
- %G2-M ([25]; H1975, 24h, 3 μM): 4.83%
- %G0-G1 ([25]; H1975, 48h, 0.3 μM): 92.06%
- %G2-M ([25]; H1975, 48h, 0.3 μM): 2.43%
- %G0-G1 ([25]; H1975, 48h, 3 μM): 93.79%
- %G2-M ([25]; H1975, 48h, 3 μM): 1.31%
- GI50 [13]: > 10000 nM
- %G0-G1 ([14]; 0.3 μM): 69.88%
- %G2-M ([14]; 0.3 μM): 5.02%
- %G0-G1 ([14]; 3 μM): 70.49%
- %G2-M ([14]; 3 μM): 5.09%
- GI50 [15]: > 10000 nM
- GI50 [17]: 63 nM
- EC50 [26]: 23 to 58 nM

Source: paper PMC4741607 (Oncotarget, 2015)
